Our source for the melting point values is a melting point compilation (Tetko et al.; mined from patent text by program, amines drawn as free bases though some values may be those of a salt).

Where only a bound is given, the exact number is not on record here.

`COc1cc2c(cc1OCc1ccccc1)CCN(C(=O)CC13CC4CC(CC(C4)C1)C3)C2` yielded a melting point of 133 to 135 °C. Next, `CCCC(CCC)N1Cc2c(C(=O)O)cc(N(C)S(C)(=O)=O)cc2C1=O`: 206 °C; `CCCCCCCCCOc1ncc(-c2ccc(O)cc2)cn1`: 89 to 90 °C; `O=C(O)c1ccc2c(c1)S(=O)(=O)c1ccccc1-2`: 312 °C. Turning to `CCOC(=O)N1C(c2ccccc2)OC(=O)C1c1ccccc1` (stereo not drawn), the melting point fell in the range of 197 to 199 °C. Next, `O=C(Nc1cccc(S(=O)(=O)C(F)(F)F)c1)c1ccc2ccccc2c1O`: 194 to 195 °C; `c1ccc(Nc2ccnc3[nH]cnc23)cc1`: 251 to 252 °C. The same measure for `COc1ccc(CCNC(=O)C(=O)O)cc1OC1CCCC1`: 123 to 124 °C; for `CS(=O)(=O)c1ccc(N2CCC(N3CCCC3)CC2)cc1`: 166 to 170 °C; for `CS(=O)(=O)c1ccc2c(c1)[nH]c(=O)c(=O)n2C1CCCCC1`: above 300 °C.

In turn, `Cc1cc(COc2nn(Cc3ccccc3)cc2CO)ccc1OCc1nc(-c2ccco2)oc1C` showed a melting point of 91 to 92 °C. The same measure for `CCC(OC)c1oc(C)cc(=O)c1OCc1ccccc1` (stereo not drawn): 63 to 65 °C. Next, `C#Cc1cn(C2CC(O)C(CO)O2)c(=O)n(C(=O)c2ccccc2)c1=O` (stereo not drawn): 156 to 157 °C; `O=C(CN1C(=O)c2ccccc2S1(=O)=O)OC1CCCCC1`: 83 °C. `COC(=O)c1cc2cnc(N3CCC[C@H]3CO)nc2n(Cc2ccc(OC)c(Cl)c2)c1=O` showed a melting point of 175 to 176 °C.

`[N-]=[N+]=NC1CCCC2(CCCC2)NC1=O` (stereo not drawn) had a melting point of 96 to 99 °C. Next, `Brc1cccc(Br)c1I`: 99 to 100 °C; `CCCCCCCCCCCc1nnc2n1-c1ccccc1C(c1ccccc1)OC2` (stereo not drawn): 83 to 84 °C. The same measure for `O=C(O)COc1c(-c2cccc(C(F)(F)F)c2)cc(C(=O)NCCCCCCc2ccccc2)cc1-c1cccc(C(F)(F)F)c1`: 166 to 169 °C; for `Cc1ccc(NC(=O)c2ccc(C(=O)Nc3ccccc3NC(=O)OC(C)(C)C)nc2)cc1Nc1nc(-c2cccnc2)cs1`: 222 to 224 °C; for `CN(C)C1(C#N)CCC(c2ccccc2)(N(C)C)CC1` (stereo not drawn): 82 to 92 °C. Turning to `COc1ccc2[nH]c(C(=O)C(C)(C)c3ccc(Cl)cc3)cc2c1`, the melting point fell in the range of 177 to 179 °C. Next, `CCOC(=O)c1csc(N2N=C(c3ccc([N+](=O)[O-])cc3)c3cc4c(cc3CC2C)OCO4)n1` (stereo not drawn): 242 to 243 °C.

As for `CC(C)(C)[Si](C)(C)O[C@H](/C=C/[C@@H]1[C@H]2CC(=O)O[C@H]2C[C@H]1O[Si](C)(C)C(C)(C)C)COc1cccc(C(F)(F)F)c1`, the melting point is 91 to 93 °C. Compound `CCOC(=O)[C@H](CCc1ccccc1)N[C@@H](C)C(=O)N1N=C(c2ccccc2)S[C@H]1C(=O)O` had a melting point of 180 to 182 °C. Next, `CS(=O)(=O)c1ccc(-c2cnn(Cc3ccccc3)c(=O)c2-c2ccc(F)c(Cl)c2)cc1`: 134 to 136 °C; `N#Cc1nn(-c2c(Cl)cc(C(F)(F)F)cc2Cl)cc1C1C=CCC1` (stereo not drawn): 76 to 80 °C.

For `Cc1ccccc1Nc1nc(N)nc2ccccc12`, the melting point lay within 273 to 275 °C. Next, `O=C(c1ccccc1)c1c(O)cc(-c2ccccc2)oc1=O`: 171 to 173 °C; `O=C(OCc1ccccc1)N1CCc2c(sc3nc(CN4C(=O)CCC4=O)c(Cl)c(-c4ccc(C(F)(F)F)cc4)c23)C1`: 201 to 202 °C; `CC1(C)C(C)(C)C1(Cl)c1ccccn1`: 100 to 102 °C. Take `O=C1C=C[C@H]2N1CCN1C(=O)C[C@H]3CCCC[C@@]321` (relative stereo): the melting point lay within 159 to 162 °C. Next, `O=C1NC(c2ccccc2)(c2ccccc2)C(=O)N1COP(=O)(OCc1ccccc1)OCc1ccccc1`: 119 to 120 °C.

The melting point is the temperature of the solid-liquid transition.
